What is called IC50 is the concentration that gives 50% inhibition. A lower IC50 goes with greater potency in that assay.

The source of these data is patent US20260356860A1, “2-SUBSTITUTED 3,4A,5,7,8,8A-HEXAHYDRO-4H-THIOPYRANO[4,3-DJPYRIMIDIN-4-ONES FOR WOUND TREATMENT” (priority 2022, published 2026).

Some results are limits rather than exact numbers.

The target of one series is T1, Tankyrase 2 (TNKS2) (Homo sapiens, UniProt Q9H2K2).
T1 sequence (Q9H2K2 1-1166): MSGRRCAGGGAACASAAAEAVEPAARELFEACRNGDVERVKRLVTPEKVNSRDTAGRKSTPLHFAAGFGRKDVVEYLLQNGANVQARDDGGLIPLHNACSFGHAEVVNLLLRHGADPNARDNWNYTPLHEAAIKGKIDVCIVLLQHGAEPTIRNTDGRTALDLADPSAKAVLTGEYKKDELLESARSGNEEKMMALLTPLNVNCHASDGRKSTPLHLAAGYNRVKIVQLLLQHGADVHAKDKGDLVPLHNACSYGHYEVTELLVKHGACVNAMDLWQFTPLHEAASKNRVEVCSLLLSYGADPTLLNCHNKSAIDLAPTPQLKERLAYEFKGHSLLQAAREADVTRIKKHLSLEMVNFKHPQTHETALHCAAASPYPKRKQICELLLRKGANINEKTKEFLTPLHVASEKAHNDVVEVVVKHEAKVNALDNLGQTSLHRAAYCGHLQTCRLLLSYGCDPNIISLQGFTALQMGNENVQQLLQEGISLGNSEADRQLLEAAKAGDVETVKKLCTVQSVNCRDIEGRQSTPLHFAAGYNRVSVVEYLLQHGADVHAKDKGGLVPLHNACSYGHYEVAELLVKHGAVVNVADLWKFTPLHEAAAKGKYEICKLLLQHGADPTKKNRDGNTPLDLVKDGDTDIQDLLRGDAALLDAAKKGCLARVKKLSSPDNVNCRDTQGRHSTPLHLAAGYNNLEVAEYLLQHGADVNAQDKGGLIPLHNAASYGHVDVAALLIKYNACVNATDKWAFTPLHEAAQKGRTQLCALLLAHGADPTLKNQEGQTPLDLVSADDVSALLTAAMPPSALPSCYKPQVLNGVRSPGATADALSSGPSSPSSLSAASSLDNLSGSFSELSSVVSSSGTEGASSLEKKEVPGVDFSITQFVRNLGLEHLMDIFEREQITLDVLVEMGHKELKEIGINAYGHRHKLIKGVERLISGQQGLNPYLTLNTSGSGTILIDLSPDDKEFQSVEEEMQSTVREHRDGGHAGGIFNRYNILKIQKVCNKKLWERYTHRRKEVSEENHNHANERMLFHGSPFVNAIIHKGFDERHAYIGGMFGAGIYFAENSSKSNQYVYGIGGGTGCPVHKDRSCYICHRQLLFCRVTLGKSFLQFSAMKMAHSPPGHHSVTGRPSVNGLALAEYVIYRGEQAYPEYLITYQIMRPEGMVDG
The series is described as follows: TNK2 Binding Assay (Tankyrase 2 ribosylation, chemiluminescence). The format is biochemical. The method, then:
Tankyrase 2 assay (n=3) was performed with the following steps: step 1, coating a 96-well plate with 50 μL/well of histone solution; step 2, conducting ribosylation reaction; and step 3, detection.
Step 1: Coating a 96-Well Plate with 50 μL/Well of Histone Solution.
A 5× histone mixture was diluted 1:5 with PBS to make a 1× histone in PBS mixture. 50 μL of the histone mixture was added to each well and incubated at 4° C. overnight. The plate was washed three times using 200 μL PBST buffer (1×PBS containing 0.05% Tween*20 (polysorbate 20) per well. The plate was tapped onto a clean paper towel to remove the liquid. The wells were blocked by adding 200 μL of blocking buffer 3 to each well. The plate was incubated at room temperature for at least 90 minutes. The plate was washed three times with 200 μL PBST buffer. The plate was tapped onto a clean paper towel to remove the liquid.
A fresh solution of 10 mM DTT in water was prepared.
A master mix was prepared and delivered to each well (25 μL/well). Master mix delivered to each well: (2.5 μL of 10×PARP assay buffer (purchased from BPS Bioscience)+2.5 μL of PARP substrate mixture 2+17.5 μL of water+2.5 μL of 10 mM fresh DTT). The concentration of DTT in the master mix was 1 mM. 25 μL of master mix was added to each well.
1×PARP buffer with DTT was prepared. 10×PARP assay buffer was diluted to 1×PARP assay buffer containing DTT by adding 1 volume of 10×PARP assay buffer+1 volume of 10 mM DTT+8 volumes of water. The concentration of DTT in the 1×PARP assay buffer was 1 mM.
5 μL of a test inhibitor was added to each well labeled as “Test Inhibitor.” For the “Positive Control,” the PARP inhibitor, XAV939, was used. For the negative control, no inhibitor is added to the assay mix.
The Tankyrase 2 (TNKS2) enzyme on ice was thawed. The tube containing the enzyme was spun briefly to recover the full content of the tube. The amount of TNKS2 enzyme required for the assay was calculated and the enzyme was diluted to 0.5 ng/μL with 1×PARP assay buffer with DTT. 16) The final concentration of TNKS2 enzyme in the assay was 2 nM. The reaction was initiated by adding 10 μL of diluted TNKS2 enzyme to each well designated “Positive Control” and “Test Inhibitor.” To each well designated as “Blank,” 10 μL of 1×PARP assay buffer with DTT was added. The plate was incubated at room temperature for 1 hour. The plate was washed three times with 100 μL of PBST buffer and the plate was tapped onto a clean paper towel.
1) Streptavidin-HRP was diluted 1:50 in Blocking buffer (purchased from BPS Bioscience) 3.50 μL of diluted Streptavidin-RP was added to each well and incubated for 30 minutes at room temperature. The plate was washed three times with 100 μL of PBST buffer and tapped onto a clean paper towel. Just before use, 1 volume of ELISA ECL Substrate A and 1 volume of ELISA ECL Substrate B were mixed on ice; and 100 μL was added to each well. Immediately, the plate was read in a luminometer or microtiter-plate reader capable of reading chemiluminescence. The “Blank” value was subtracted from all other values.

In series [1] the test system is HEK293 SuperTOPFlash reporter cells, Wnt promoter. Kind of series: HEK CELL Wnt Assay (luciferase reporter). In kind it is cell-based. The following applies: for IC50: serial dilutions, with or without 50 ng/mL Wnt3a, 18 h. The method, then:
In order to determine the effect of the compounds of Formula (I) on Wnt inhibition, an in vitro assay using HEK293 SuperTOPFlash reporter cells, with the Wnt promoter driving a luciferase reporter gene, were utilized. 40,000 HEK293 SuperTOPFlash reporter cells were seeded, per well, in a 48 well plate for 24 hours, prior to administration of serial dilutions of the compound of Formula (I) to individual wells. Serial dilutions ranging from […] to 1 nM of the compound of Formula (I) were added with or without 50 ng/mL Wnt3a (Time Biosciences) and allowed to incubate with the reporter cells for 18 hours. Reporter cells with no treatment were used as negative control.

For `O=c1[nH]c(-c2ccc3c(c2)COB3O)nc2c1CSCC2` [Compound 3, 2-(1-hydroxy-1,3-dihydrobenzo[c][1,2]oxaborol-5-yl)-7,8-dihydro-3H-thiopyrano [4,3-d]pyrimidin-4 (5H)-one], the IC50 on Tankyrase 2 (TNKS2) was 28 nM; in series [1], 7500 nM.
The matching figures for `O=c1[nH]c(-c2ccc(-c3nc4c(c(=O)[nH]3)CSCC4)cc2)no1` [Compound 4, 3-(4-(4-oxo-3,5,7,8-tetrahydro-4H-thiopyrano[4,3-d]pyrimidin-2-yl)phenyl)-1,2,4-oxadiazol-5 (4H)-one]: 13 nM and over 10000 nM.
On to `O=c1[nH]c(/C=C/c2ccc(C(F)(F)F)cc2)nc2c1CSCC2` [Compound 6, (E)-2-(4-(trifluoromethyl)styryl)-3,5,7,8-tetrahydro-4H-thiopyrano[4,3-d]pyrimidin-4-one], for which the figures for the 50% inhibitory concentration (IC50) (at Tankyrase 2 (TNKS2); in series [1]) were 2500 nM and 2000 nM, respectively.
Turning to `O=c1[nH]c(-c2ccc(-c3cnc(OCCO)nc3)cc2)nc2c1CSCC2` [Compound 11, 2-(4-(2-(2-hydroxyethoxy)pyrimidin-5-yl)phenyl)-3,5,7,8-tetrahydro-4H-thiopyrano[4,3-d]pyrimidin-4-one], the values for the IC50 (at Tankyrase 2 (TNKS2); in series [1]) were 21 nM and 100 nM, respectively. For the same compound, in series [1], the “solubility remark in HEK CELL Wnt assay” value is “solubility issue”.
With `CC(C)(OCCO)c1ccc(-c2ccc(-c3nc4c(c(=O)[nH]3)CSCC4)cc2)cc1` [Compound 12, 2-(4′-(2-(2-hydroxyethoxy)propan-2-yl)-[1,1′-biphenyl]-4-yl)-3,5,7,8-tetrahydro-4H-thiopyrano[4,3-d]pyrimidin-4-one], the values for the IC50 (on Tankyrase 2 (TNKS2); in series [1]) were 6.5 nM and 3 nM, respectively.
Regarding `O=c1[nH]c(-c2cc(F)c(B(O)O)c(F)c2)nc2c1CSCC2` [Compound 14, (2,6-difluoro-4-(4-oxo-3,5,7,8-tetrahydro-4H-thiopyrano[4,3-d]pyrimidin-2-yl)phenyl)boronic acid], the IC50 is 11 nM on Tankyrase 2 (TNKS2) and 8000 nM in series [1].
Turning to `COCCOC(C)(C)c1c(F)cc(-c2nc3c(c(=O)[nH]2)CSCC3)cc1F` [Compound 16, 2-(3,5-difluoro-4-(2-(2-methoxyethoxy)propan-2-yl)phenyl)-3,5,7,8-tetrahydro-4H-thiopyrano[4,3-d]pyrimidin-4-one], the IC50 was determined as 50 nM on Tankyrase 2 (TNKS2) and 400 nM in series [1].
Consider `COCCOC(C)(C)c1ccc(-c2nc3c(c(=O)[nH]2)CSCC3)cc1` [Compound 17, 2-(4-(2-(2-methoxyethoxy)propan-2-yl)phenyl)-3,5,7,8-tetrahydro-4H-thiopyrano[4,3-d]pyrimidin-4-one], for which the results for the IC50 (at Tankyrase 2 (TNKS2); in series [1]) were 3 nM and 60 nM, respectively.
For the compound `O=c1[nH]c(-c2ccc(-c3ccc(Br)nc3)nc2)nc2c1CSCC2` [Compound 19, 2-(6′-bromo-[2,3′-bipyridin]-5-yl)-3,5,7,8-tetrahydro-4H-thiopyrano[4,3-d]pyrimidin-4-one], the values for the IC50 (at Tankyrase 2 (TNKS2); in series [1]) were 40 nM and 2500 nM, respectively.
Take `O=c1[nH]c(-c2cc(F)c(-c3ccc(Br)nc3)c(F)c2)nc2c1CSCC2` [Compound 21, 2-(4-(6-bromopyridin-3-yl)-3,5-difluorophenyl)-3,5,7,8-tetrahydro-4H-thiopyrano[4,3-d]pyrimidin-4-one]: the IC50 on Tankyrase 2 (TNKS2) stood at 12 nM; in series [1], 2000 nM.
On to `O=c1[nH]c(-c2ccc(-c3ccc(B(O)O)cn3)cc2)nc2c1CSCC2` [Compound 22, (6-(4-(4-oxo-3,5,7,8-tetrahydro-4H-thiopyrano[4,3-d]pyrimidin-2-yl)phenyl)pyridin-3-yl)boronic acid], for which the results for the IC50 (on Tankyrase 2 (TNKS2); in series [1]) were 4 nM and 250 nM, respectively.
For the compound `O=c1[nH]c(-c2ccc(-c3ncc(B(O)O)cn3)cc2)nc2c1CSCC2` [Compound 24, (2-(4-(4-oxo-3,5,7,8-tetrahydro-4H-thiopyrano[4,3-d]pyrimidin-2-yl)phenyl)pyrimidin-5-yl)boronic acid], the figures for the IC50 (on Tankyrase 2 (TNKS2); in series [1]) were 3 nM and 500 nM, respectively.
Turning to `O=c1[nH]c(-c2c(F)cc(-c3ccc(B(O)O)cc3)cc2F)nc2c1CSCC2` [Compound 25, (3′,5′-difluoro-4′-(4-oxo-3,5,7,8-tetrahydro-4H-thiopyrano[4,3-d]pyrimidin-2-yl)-[1,1′-biphenyl]-4-yl)boronic acid], the figures for the IC50 (at Tankyrase 2 (TNKS2); in series [1]) were 63 nM and 2500 nM, respectively.
Take `O=c1[nH]c(-c2ccc(-c3ccc(B(O)O)cc3)cc2O)nc2c1CSCC2` [Compound 26, (3′-hydroxy-4′-(4-oxo-3,5,7,8-tetrahydro-4H-thiopyrano[4,3-d]pyrimidin-2-yl)-[1,1′-biphenyl]-4-yl)boronic acid]: the half-maximal inhibitory concentration (IC50) at Tankyrase 2 (TNKS2) was found to be 24 nM; in series [1], 652 nM.
As for `O=c1[nH]c(-c2ccc(-c3ccc(B(O)O)c(O)c3)cc2)nc2c1CSCC2` [Compound 27, (3-hydroxy-4′-(4-oxo-3,5,7,8-tetrahydro-4H-thiopyrano[4,3-d]pyrimidin-2-yl)-[1,1′-biphenyl]-4-yl)boronic acid], the IC50 stood at 2 nM on Tankyrase 2 (TNKS2) and 36 nM in series [1].
In the case of `O=c1[nH]c(-c2ccc(-c3ccc(B(O)O)cc3O)cc2)nc2c1CSCC2` [Compound 28, (2-hydroxy-4′-(4-oxo-3,5,7,8-tetrahydro-4H-thiopyrano[4,3-d]pyrimidin-2-yl)-[1,1′-biphenyl]-4-yl)boronic acid], the IC50 (at Tankyrase 2 (TNKS2); in series [1]) was 2 nM throughout.
For `COC(=O)NCCOC(C)(C)c1ccc(-c2ccc(-c3nc4c(c(=O)[nH]3)CSCC4)cc2)cc1` [Compound 29, methyl (2-((2-(4′-(4-oxo-3,5,7,8-tetrahydro-4H-thiopyrano[4,3-d]pyrimidin-2-yl)-[1,1′-biphenyl]-4-yl)propan-2-yl)oxy)ethyl)carbamate], the half-inhibitory concentration (IC50) amounted to 1 nM on Tankyrase 2 (TNKS2) and 100 nM in series [1].
